The values below come from US12577262B2, “Functionalized gold carbene napthaquinone complexes for use in the treatment of cancer” (Board of Regents, The University of Texas System, priority 2019, dated 2026).

One test deals with HCT116 Colon. Nature of the test: Cell proliferation, 72 h IC50 (Table 3). Conditions: read-out: 72 h IC50, 3-5 separate experiments. Format: cell-based, human.
Test [1] deals with A549 human lung cancer cell line. Nature of the test: Cell proliferation MTT assay, Example 4 (Table 8). The following applies: 72 h treatment, max DMSO 0.1%. Format: cell-based. For orientation: Formazan colour is commonly taken as a measure of viable cells.
The next test concerns L929 fibroblasts. Nature of the test: Cell proliferation, 72 h IC50 (Table 3). The test is classed as cell-based, human. From the text:
The initial rationale for preparing complexes 1-3 (shown below) involved a systems approach to circumventing the antioxidant network that helps give solid tumors their resiliency.

In another test the test system is A549 lung cancer cells. Nature of the test: Cell proliferation, 72 h IC50 (Table 3). Format: cell-based, human. Conditions: read-out: 72 h IC50, 3-5 separate experiments.
For a further test, the system named is Panc-02 cells. The test can be described thus: CRT translocation to the cell membrane, flow cytometry (percent CRT+ cells). The test is classed as cell-based, murine. Background: Flow cytometry measures light scatter and fluorescence of single cells or particles in a stream.
Test [2] concerns A549 human lung cancer cell line. The test can be described thus: Cell proliferation MTT assay, Example 3 (Table 5). Format: cell-based. The following applies: 72 h incubation. As to the method: According to previous literature reports, BSA binding can reduce the cytotoxicity of Au(I) bis-NHC complexes (Zou et al., 2014). […] The non-conjugated alcohol 1 and Auranofin were used as benchmark comparisons. Incubation was carried out for 72 h in all cases. […] A549 cells were harvested and seeded into 96-well culture plates (Costar 07-200-90) in 100 μL of culture medium. The cells were allowed to incubate overnight at 37° C. in the presence of 5% CO2. A549 cells were seeded at a density of 1500 cells/well. […] To each well of a 96 well plate was added 100 μL of the appropriate solution. […] After removal of the medium, the resulting formazan was dissolved in […] DMSO and the respective absorbances were measured at 560-650 nm using a microplate reader (Molecular Devices, Sunnyvale, CA). Absorbance values were corrected for background and then normalized to wells containing untreated cells to allow for plate-to-plate comparisons. The resulting dose response curves were subjected to linear regression analysis (Origin by OriginLab, Inc.) for determination of IC50 values. […] Maximum concentration of DMSO used is 0.1%. This concentration of DMSO was determined to be non-toxic in separate control experiments. […] The stock solution was further diluted 10-fold in RPMI media such that the maximum drug concentration used was 10 μM for the dose dependent MTT assay.

A further test concerns 2780CP Ovarian. The test can be described thus: Cell proliferation, 72 h IC50 (Table 3). The test is classed as cell-based, human. The following applies: read-out: 72 h IC50, 3-5 separate experiments.
In a further test the test system is CT26 Colon. Conditions: read-out: 72 h IC50, 3-5 separate experiments.
The subject of another test is A2780 Ovarian. The test can be described thus: Cell proliferation, 72 h IC50 (Table 3). The test is classed as cell-based, human. The following applies: read-out: 72 h IC50, 3-5 separate experiments.
Test [3] concerns CT26 mouse colorectal cancer cells. The following applies: immunized with CT26 cells treated with oxaliplatin at 150 μM; challenged after 7 days.

As a reminder, the IC50 is the concentration needed to halve the response being measured.

The structures appear in SMILES notation. Where a name gives a salt, the structure may show the parent alone.

Protocol for Panc-02 cells: Calreticulin (CRT) translocation from the ER to the cell membrane is a critical mechanistic step in ICD induction. To correlate the findings of ER and mitochondrial stress to ICD induction, murine cancer cell lines (Panc-02 pancreas and CT26 colon) were treated with 3 and assessed for cell membrane CRT translocation (FIG. 4).

Turning to `CC(=O)OC[C@H]1O[C@@H]([S-])[C@H](OC(C)=O)[C@@H](OC(C)=O)[C@@H]1OC(C)=O.CCP(CC)CC.[Au+]` [Auranofin], the IC50 in the test on HCT116 Colon is 1300 nM; in test [1], 2180 nM; in the test on L929 fibroblasts (read-out: 72 h IC50, L929 Fibroblasts, 72 h, 3-5 separate experiments) it was 4200 nM; in the test on A549 lung cancer cells, 1670 nM; in test [2], 2240 nM. This compound came in with a cancer selectivity in the test on L929 fibroblasts (L929 fibroblasts in comparison to A549 lung cancer cells) of 2.5 fold. For the same compound, the “CRT translocation to the cell membrane” value in the test on Panc-02 cells (flow cytometry, 3 at 1 μM, auranofin under the same conditions) was “ineffective”.
On to `O=C1[O][Pt]2([NH][C@@H]3CCCC[C@H]3[NH]2)[O]C1=O` [Oxaliplatin], for which the IC50 is 500 nM in the test on HCT116 Colon; 300 nM in the test on 2780CP Ovarian; 970 nM in the test on A549 lung cancer cells; 2000 nM with CT26 Colon; 150 nM in the test with A2780 Ovarian. The “concentration needed to achieve the same CRT+ signal” value with Panc-02 cells (same CRT+ signal as 3 at 1 μM) amounted to 300 µM. In [3], the “mice remaining tumor-free at the end of the study” value was 80%.
Turning to `COc1cccc2c1C(=O)c1c(O)c3c(c(O)c1C2=O)C[C@@](O)(C(=O)CO)C[C@@H]3O[C@H]1C[C@H](N)[C@H](O)[C@H](C)O1` [Doxorubicin•HCl, Doxorubicin], in test [1] (Homo sapiens), the IC50 amounted to 131 nM.
In the case of `N.N.[Cl][Pt][Cl]` [Cisplatin], the results for the IC50 with 2780CP Ovarian, in the test on A549 lung cancer cells and in the test with A2780 Ovarian were 7100 nM, 1030 nM and 330 nM, respectively.
